PubChem BioAssay AID250 (DTP/NCI, 2004)
Values joined by “and” are separate entries in the source; they are usually repeats but may differ in a detail not shown here. Equal entries are not always repeated. Inconclusive results and toxic doses are left out.

System: BDF1 mice, L1210 leukemia sc, survival T/C
Assay: NCI In Vivo Anticancer Drug Screen. Data for tumor model L1210 Leukemia (subcutaneous) in B6D2F1 (BDF1) mice
Conditions: higher = longer survival
How it was run: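 Mice carrying transplanted tumors received test compounds, and survival or tumor size was measured. Values are the treated-group measurement (T) divided by that of the vehicle-treated control group (C).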

Compound: CC1CCC(NC(=O)N(CCCl)N=O)CC1 (stereo unspecified)
- T/C (endpoint: median survival time, dose: 5.0 mg/kg/injection, schedule: Q03HX008 (sc), vehicle: saline): 322 % of control and 333 % of control
- T/C (endpoint: median survival time, dose: 6.25 mg/kg/injection, schedule: Q04DX008 (sc), vehicle: saline): 681 % of control and 690 % of control
- T/C (endpoint: median survival time, dose: 12.5 mg/kg/injection, schedule: Q01DX001 (sc), vehicle: saline): 120 % of control
- T/C (endpoint: median survival time, dose: 12.5 mg/kg/injection, schedule: Q04DX008 (sc), vehicle: saline): 370 % of control and 403 % of control
- T/C (endpoint: median survival time, dose: 25.0 mg/kg/injection, schedule: Q04DX008 (sc), vehicle: saline): 119 % of control and 120 % of control
- T/C (endpoint: median survival time, dose: 50.0 mg/kg/injection, schedule: Q04DX001 (sc), vehicle: saline): 215 % of control and 257 % of control
- T/C (endpoint: median survival time, dose: 50.0 mg/kg/injection, schedule: Q04DX008 (sc), vehicle: saline): 104 % of control and 105 % of control
- T/C (endpoint: median survival time, dose: 100.0 mg/kg/injection, schedule: Q04DX001 (sc), vehicle: saline): 230 % of control
- T/C (endpoint: median survival time, dose: 200.0 mg/kg/injection, schedule: Q04DX001 (sc), vehicle: saline): 120 % of control and 121 % of control
- T/C (endpoint: median survival time, dose: 400.0 mg/kg/injection, schedule: Q04DX001 (sc), vehicle: saline): 150 % of control and 151 % of control

Compound: C1CN1c1nc(N2CC2)nc(N2CC2)n1
- T/C (endpoint: median survival time, dose: 0.23 mg/kg/injection, schedule: Q01DX Z (sc), vehicle: saline): 100 % of control
- T/C (endpoint: median survival time, dose: 0.39 mg/kg/injection, schedule: Q01DX Z (sc), vehicle: saline): 104 % of control and 105 % of control
- T/C (endpoint: median survival time, dose: 0.65 mg/kg/injection, schedule: Q01DX Z (sc), vehicle: saline): 112 % of control and 115 % of control
- T/C (endpoint: median survival time, dose: 1.08 mg/kg/injection, schedule: Q01DX Z (sc), vehicle: saline): 160 % of control
- T/C (endpoint: median survival time, dose: 3.0 mg/kg/injection, schedule: Q01DX Z (sc), vehicle: saline): 108 % of control
- T/C (endpoint: median survival time, dose: 5.0 mg/kg/injection, schedule: Q01DX Z (sc), vehicle: saline): 104 % of control and 120 % of control

Compound: O=NN(CCCl)C(=O)NC1CCCCC1
- T/C (endpoint: median survival time, dose: 2.5 mg/kg/injection, schedule: Q01DX009 (sc), vehicle: other): 123 % of control
- T/C (endpoint: median survival time, dose: 3.0 mg/kg/injection, schedule: Q01DX Z (sc), vehicle: carboxymethylcellulose (CMC)): 110 % of control
- T/C (endpoint: median survival time, dose: 5.0 mg/kg/injection, schedule: Q01DX009 (sc), vehicle: other): 158 % of control
- T/C (endpoint: median survival time, dose: 5.0 mg/kg/injection, schedule: Q01DX Z (oral), vehicle: carboxymethylcellulose (CMC)): 221 % of control
- T/C (endpoint: median survival time, dose: 5.0 mg/kg/injection, schedule: Q01DX Z (sc), vehicle: carboxymethylcellulose (CMC)): 120 % of control
- T/C (endpoint: median survival time, dose: 8.0 mg/kg/injection, schedule: Q01DX009 (ip), vehicle: other): 152 % of control
- T/C (endpoint: median survival time, dose: 8.4 mg/kg/injection, schedule: Q01DX Z (oral), vehicle: carboxymethylcellulose (CMC)): 447 % of control
- T/C (endpoint: median survival time, dose: 8.4 mg/kg/injection, schedule: Q01DX Z (sc), vehicle: carboxymethylcellulose (CMC)): 315 % of control and 421 % of control
- T/C (endpoint: median survival time, dose: 8.4 mg/kg/injection, schedule: Q07DX Z (sc), vehicle: carboxymethylcellulose (CMC)): 100 % of control
- T/C (endpoint: median survival time, dose: 10.0 mg/kg/injection, schedule: Q01DX009 (sc), vehicle: other): 160 % of control
- T/C (endpoint: median survival time, dose: 14.0 mg/kg/injection, schedule: Q01DX001 (sc), vehicle: carboxymethylcellulose (CMC)): 120 % of control
- T/C (endpoint: median survival time, dose: 14.0 mg/kg/injection, schedule: Q01DX Z (oral), vehicle: carboxymethylcellulose (CMC)): 410 % of control
- T/C (endpoint: median survival time, dose: 14.0 mg/kg/injection, schedule: Q01DX Z (sc), vehicle: carboxymethylcellulose (CMC)): 400 % of control and 560 % of control
- T/C (endpoint: median survival time, dose: 14.0 mg/kg/injection, schedule: Q07DX Z (sc), vehicle: carboxymethylcellulose (CMC)): 165 % of control
- T/C (endpoint: median survival time, dose: 20.0 mg/kg/injection, schedule: Q01DX009 (sc), vehicle: other): 163 % of control
- T/C (endpoint: median survival time, dose: 23.0 mg/kg/injection, schedule: Q01DX001 (sc), vehicle: carboxymethylcellulose (CMC)): 150 % of control
- T/C (endpoint: median survival time, dose: 23.0 mg/kg/injection, schedule: Q01DX Z (oral), vehicle: carboxymethylcellulose (CMC)): 215 % of control
- T/C (endpoint: median survival time, dose: 23.0 mg/kg/injection, schedule: Q01DX Z (sc), vehicle: carboxymethylcellulose (CMC)): 265 % of control and 273 % of control
- T/C (endpoint: median survival time, dose: 23.0 mg/kg/injection, schedule: Q07DX Z (sc), vehicle: carboxymethylcellulose (CMC)): 170 % of control
- T/C (endpoint: median survival time, dose: 32.0 mg/kg/injection, schedule: Q01DX009 (ip), vehicle: other): 120 % of control
- T/C (endpoint: median survival time, dose: 39.0 mg/kg/injection, schedule: Q01DX001 (sc), vehicle: carboxymethylcellulose (CMC)): 295 % of control
- T/C (endpoint: median survival time, dose: 39.0 mg/kg/injection, schedule: Q01DX Z (oral), vehicle: carboxymethylcellulose (CMC)): 157 % of control
- T/C (endpoint: median survival time, dose: 39.0 mg/kg/injection, schedule: Q07DX Z (sc), vehicle: carboxymethylcellulose (CMC)): 750 % of control
- T/C (endpoint: median survival time, dose: 65.0 mg/kg/injection, schedule: Q01DX001 (sc), vehicle: carboxymethylcellulose (CMC)): 355 % of control
- T/C (endpoint: median survival time, dose: 65.0 mg/kg/injection, schedule: Q07DX Z (sc), vehicle: carboxymethylcellulose (CMC)): 330 % of control
- T/C (endpoint: median survival time, dose: 108.0 mg/kg/injection, schedule: Q01DX001 (sc), vehicle: carboxymethylcellulose (CMC)): 750 % of control

Compound: CCS(=O)(=O)Nc1cccc(Nc2c3cccc(C)c3nc3c(C)cccc23)c1OC
- T/C (endpoint: mean survival time, dose: 12.5 mg/kg/injection, schedule: Q01DX009 (sc), vehicle: Klucel (hydroxypropylcellulose) (HPC)): 105 % of control
- T/C (endpoint: mean survival time, dose: 25.0 mg/kg/injection, schedule: Q01DX009 (sc), vehicle: Klucel (hydroxypropylcellulose) (HPC)): 100 % of control
- T/C (endpoint: mean survival time, dose: 50.0 mg/kg/injection, schedule: Q01DX009 (sc), vehicle: Klucel (hydroxypropylcellulose) (HPC)): 104 % of control
- T/C (endpoint: mean survival time, dose: 100.0 mg/kg/injection, schedule: Q01DX009 (sc), vehicle: Klucel (hydroxypropylcellulose) (HPC)): 112 % of control

Compound: O=C(Nc1ccc(C2=NCCCN2)cc1)c1ccc(C(=O)Nc2ccc(C3=NCCCN3)cc2)nc1
- T/C (endpoint: median survival time, dose: 3.0 mg/kg/injection, schedule: Q01DX Z (sc), vehicle: water): 100 % of control
- T/C (endpoint: median survival time, dose: 5.0 mg/kg/injection, schedule: Q01DX Z (sc), vehicle: water): 100 % of control
- T/C (endpoint: median survival time, dose: 8.4 mg/kg/injection, schedule: Q01DX Z (sc), vehicle: water): 100 % of control
- T/C (endpoint: median survival time, dose: 14.0 mg/kg/injection, schedule: Q01DX Z (sc), vehicle: water): 88 % of control
- T/C (endpoint: median survival time, dose: 23.0 mg/kg/injection, schedule: Q01DX Z (sc), vehicle: water): 100 % of control
